Reference: article PMC5047880, “Characterization of Linoleate 10-Hydratase of Lactobacillus plantarum and Novel Antifungal Metabolites” (Frontiers in Microbiology, 2016)

Legend:
Experiment in all cases: activity of apoenzyme after addition of FAD, LC-APPI-MS
Format in all cases: biochemical
Conditions in all cases: 0.2 mM FAD, 4°C, 24 h; linoleic acid as substrate, MES pH 6.1
[1] = target: T1, LAH of Lactobacillus hammesii (linoleate 10-hydratase, 10-LAH) (Levilactobacillus hammesii, UniProt A0A1I9RYV0)
T1 construct: full length, 564 residues; His-tag from pET-28a(+) (BamHI/HindIII); primers encode MVKTKAVM... and ...ATKRMFS
T1 sequence (A0A1I9RYV0 1-564): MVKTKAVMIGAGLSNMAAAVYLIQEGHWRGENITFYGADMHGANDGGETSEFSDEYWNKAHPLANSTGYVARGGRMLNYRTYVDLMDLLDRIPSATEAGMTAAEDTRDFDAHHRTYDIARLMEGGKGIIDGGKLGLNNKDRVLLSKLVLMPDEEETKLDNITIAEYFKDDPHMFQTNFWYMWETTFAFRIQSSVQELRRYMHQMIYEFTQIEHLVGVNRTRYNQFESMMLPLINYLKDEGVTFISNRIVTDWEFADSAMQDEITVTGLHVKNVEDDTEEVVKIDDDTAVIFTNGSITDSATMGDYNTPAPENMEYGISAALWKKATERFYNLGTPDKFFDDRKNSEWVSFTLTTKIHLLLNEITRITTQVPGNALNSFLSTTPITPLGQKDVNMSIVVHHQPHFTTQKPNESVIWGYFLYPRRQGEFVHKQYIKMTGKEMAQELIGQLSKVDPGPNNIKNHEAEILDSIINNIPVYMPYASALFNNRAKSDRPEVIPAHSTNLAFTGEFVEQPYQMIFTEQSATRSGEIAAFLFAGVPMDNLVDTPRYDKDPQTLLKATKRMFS

[2] = target: T2, LAH of Lactobacillus plantarum (linoleate 10-hydratase, 10-LAH) (Lactiplantibacillus plantarum, UniProt A0A1I9RYU9)
T2 construct: full length, 564 residues; His-tag from pET-28a(+) (EcoRI/NotI); primers encode MVKSKAIM... and ...ATKKMFD
T2 sequence (A0A1I9RYU9 1-564): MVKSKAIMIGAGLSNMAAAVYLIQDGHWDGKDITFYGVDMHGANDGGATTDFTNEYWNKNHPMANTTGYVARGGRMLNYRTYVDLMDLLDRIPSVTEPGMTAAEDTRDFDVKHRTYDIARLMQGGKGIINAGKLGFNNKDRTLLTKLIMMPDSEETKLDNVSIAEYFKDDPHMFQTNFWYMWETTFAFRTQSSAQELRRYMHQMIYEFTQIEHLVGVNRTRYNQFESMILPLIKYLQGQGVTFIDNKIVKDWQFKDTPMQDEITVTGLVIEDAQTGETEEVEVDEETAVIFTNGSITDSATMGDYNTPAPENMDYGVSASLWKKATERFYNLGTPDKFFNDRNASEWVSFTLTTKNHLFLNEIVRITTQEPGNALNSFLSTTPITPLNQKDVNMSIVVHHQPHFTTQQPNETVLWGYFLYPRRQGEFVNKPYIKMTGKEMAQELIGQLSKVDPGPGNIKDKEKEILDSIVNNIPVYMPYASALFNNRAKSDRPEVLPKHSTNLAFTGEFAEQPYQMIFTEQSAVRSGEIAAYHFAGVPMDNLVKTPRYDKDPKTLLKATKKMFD

[3] = target: T3, LAH of Lactobacillus spicheri (linoleate 10-hydratase, 10-LAH) (Levilactobacillus spicheri, UniProt A0A0F3RUK6)
T3 construct: gene lai; full length, 564 residues; His-tag from pET-28a(+) (EcoRI/NotI); primers encode MVKTKAVM... and ...ATKKMFS
T3 sequence (A0A0F3RUK6 1-564): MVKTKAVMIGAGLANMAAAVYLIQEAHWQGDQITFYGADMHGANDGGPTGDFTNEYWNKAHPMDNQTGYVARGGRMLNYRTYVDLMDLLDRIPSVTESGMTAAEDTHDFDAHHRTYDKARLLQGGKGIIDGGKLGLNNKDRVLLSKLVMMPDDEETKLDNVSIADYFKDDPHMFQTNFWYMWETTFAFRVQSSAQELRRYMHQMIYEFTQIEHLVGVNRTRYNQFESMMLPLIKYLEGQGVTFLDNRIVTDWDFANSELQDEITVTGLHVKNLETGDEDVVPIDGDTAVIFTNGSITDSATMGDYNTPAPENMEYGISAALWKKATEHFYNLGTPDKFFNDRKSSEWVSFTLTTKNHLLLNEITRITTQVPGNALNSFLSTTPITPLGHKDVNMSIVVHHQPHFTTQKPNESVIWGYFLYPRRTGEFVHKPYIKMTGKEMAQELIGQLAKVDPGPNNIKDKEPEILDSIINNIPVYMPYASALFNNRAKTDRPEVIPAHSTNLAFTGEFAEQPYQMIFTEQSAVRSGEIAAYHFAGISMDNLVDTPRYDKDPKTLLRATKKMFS

[4] = target: T4, LAH of Lactobacillus reuteri (linoleate 10-hydratase, 10-LAH) (Limosilactobacillus reuteri, UniProt A0A1I9RYU8)
T4 construct: full length, 590 residues; His-tag from pET-28a(+) (NdeI/NotI); primers encode MYYSNGNY... and ...MEEQHLL
T4 sequence (A0A1I9RYU8 1-590): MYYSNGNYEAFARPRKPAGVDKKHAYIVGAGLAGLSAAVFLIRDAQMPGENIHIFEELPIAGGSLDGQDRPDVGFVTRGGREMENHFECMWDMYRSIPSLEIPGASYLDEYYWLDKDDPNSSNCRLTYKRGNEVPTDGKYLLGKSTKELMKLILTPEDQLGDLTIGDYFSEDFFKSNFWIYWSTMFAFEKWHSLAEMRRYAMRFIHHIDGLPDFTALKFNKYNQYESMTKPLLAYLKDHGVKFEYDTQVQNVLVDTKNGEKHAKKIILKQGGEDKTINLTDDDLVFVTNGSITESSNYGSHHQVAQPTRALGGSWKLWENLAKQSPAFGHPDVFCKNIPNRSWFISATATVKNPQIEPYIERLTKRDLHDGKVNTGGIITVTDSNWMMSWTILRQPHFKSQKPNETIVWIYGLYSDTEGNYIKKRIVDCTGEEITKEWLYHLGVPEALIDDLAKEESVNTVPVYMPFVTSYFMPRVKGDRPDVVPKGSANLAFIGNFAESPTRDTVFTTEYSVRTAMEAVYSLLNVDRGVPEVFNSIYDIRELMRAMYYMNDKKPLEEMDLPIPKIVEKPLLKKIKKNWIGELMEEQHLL

Cc1cc2nc3c(=O)[nH]c(=O)nc-3n(C[C@H](O)[C@H](O)[C@H](O)COP(=O)(O)OP(=O)(O)OC[C@H]3O[C@@H](n4cnc5c(N)ncnc54)[C@H](O)[C@@H]3O)c2cc1C [FAD]
activity of apoenzyme after addition of FAD, LC-APPI-MS [1]: The addition of cofactor FAD to apoenzyme was essential for activity
activity of apoenzyme after addition of FAD, LC-APPI-MS [2]: The addition of cofactor FAD to apoenzyme was essential for activity
activity of apoenzyme after addition of FAD, LC-APPI-MS [3]: The addition of cofactor FAD to apoenzyme was essential for activity
activity of apoenzyme after addition of FAD, LC-APPI-MS [4]: The addition of cofactor FAD to apoenzyme was essential for activity
